From publication PMC10567728, “Targeted imaging of uPAR expression in vivo with cyclic AE105 variants” (Scientific Reports, 2023) come the findings set out here.

Data set [1] concerns the target T1, uPAR (Homo sapiens, UniProt Q03405).
T1 construct: Recombinant human uPAR^1–283 was expressed; made in house; host or cells: Drosophila melanogaster S2 cells
The experiment in a line: SPR real-time binding kinetics, peptides in solution and immobilised uPAR. The following applies: for koff / Kd / kon: single cycle SPR, immobilised uPAR, 20 °C; for Kd: 1:1 model; for kon: read-out: kon. As for the experimental part:
The real-time binding kinetics of uPAR•peptide interactions were measured with SPR using a Biacore T200™(Cytiva); essentially as described in[56],[77]. In brief, uPAR was covalently immobilised on a CM5 sensor chip via amine coupling resulting in a surface density of 1157–1581 RU (~ 33–44 fmol/mm^2). The binding kinetics for the peptides to immobilised uPAR were measured using a single cycle protocol. In this setup, peptides were injected as five serial two-fold dilutions with a contact time of 200 s. After the last analyte injection, the dissociation time was set to 1000 s. The sensor chip was regenerated with two consecutive injections of 0.1 M acetic acid in 0.5 M NaCl. All experiments were conducted at 20 °C with a flow rate of 50 µL/min in 10 mM HEPES, 150 mM NaCl, 3 mM EDTA, and 0.05% (v/v) surfactant P-20 at pH 7.4. The kinetic rate constants (kon and koff) were determined by non-linear regression fitting of the curves to the simple bimolecular interaction model (BiacoreT200 Evaluation™ 3.0 software).

Data set [2] deals with T1, uPAR. The experiment in a line: Nano-DSF thermal stability of uPAR•peptide complexes. Particulars: for Tm (apparent melting temperature of uPAR•peptide complex): 15 µM uPAR, 30 µM peptide, PBS pH 7.4, n = 3; for increase in apparent Tm: DOTA-conjugated peptides with spacer, compared to (4b); for decrease in apparent Tm on introduction of spacer: (4) vs (1), (6) vs (3). As for the experimental part: The thermal stability of the uPAR•peptide complexes was analyzed with Nano-DSF using a Prometheus NT.48™ (Nanotemper). uPAR (15 µM) was mixed with twofold excess of peptide (30 µM) in PBS pH 7.4 and incubated for 15 min at RT to ensure complex formation. Samples containing either 15 µM uPAR or 30 µM of each peptide were included as controls. The samples were loaded into standard capillaries and in triplicates. To unfold the proteins, the samples were exposed to an increasing temperature gradient from 20 to 95 °C with a ramping rate of 1 °C/min. The excitation power was set to 50% (Ex.280 nm) and the fluorescence emission collected at 330 nm and 350 nm. The melting temperatures of the complexes were determined in the PR.ThermControl software (Nanotemper) from the first derivative of the fluorescence ratio (350 nm/330 nm).
On the technique in general: DSF heats the sample and reads unfolding from a dye or from intrinsic fluorescence.

Data set [3] has as its target T2, uPAR•uPA interaction (Homo sapiens, UniProt Q03405).
T2 construct: Recombinant human uPAR^1–283 was expressed; made in house; host or cells: Drosophila melanogaster S2 cells
The experiment in a line: SPR competition assay of the uPAR•uPA interaction. It is filed as binding. The following applies: for IC50: competition of uPAR•uPA interaction, 2 nM uPAR, 20 °C, n = 3. As for the experimental part:
The IC50-values of antagonistic peptides on the uPAR•uPA interaction were determined with SPR using a Biacore T200™ or Biacore 3000™ instruments (Cytiva) essentially as described[4],[56],[77]. In brief, we immobilized high levels of pro-uPA^S356A (0.1 pmol pro-uPA/mm^2) on a CM5 sensor chip via amine coupling. The experiments were conducted by injecting 2 nM uPAR in presence of a threefold dilution series of a given antagonistic peptide for 300 s with a flow rate of 50 µL/min at 20 °C. The high immobilization levels result in binding conditions that are entirely controlled by mass transport limitations (MTL). Accordingly, the observed association rates (vobs) are directly proportional to the concentrations of binding-active uPAR in solution. To determine the IC50, we also measured a standard curve of uPAR binding (a twofold dilution series of 0.06 to 2 nM uPAR, linear due to MTL). The running buffer was 10 mM HEPES, 150 mM NaCl, 3 mM EDTA, and 0.05% (v/v) surfactant P-20 at pH 7.4, and the regeneration buffer was 0.1 M acetic acid in 0.5 M NaCl.

Values joined by “and” are separate entries in the source; they are usually repeats but may differ in a detail not shown here. Equal values may be shown once. Positions of bridges follow the written chain, without caps; N, C: chain ends. Non-standard residues stand in square brackets, D forms with d. Residues, ends and D or L forms follow the SMILES beside them. *: point of attachment. DOTA = O=C(O)CN1CCN(CC(=O)O)CCN(CC(=O)*)CCN(CC(=O)O)CC1; Cha = N[C@@H](CC1CCCCC1)C(=O)O

The term koff denotes a measure of how fast the partners let go of each other. The low end stands for slow dissociation, the high end for fast dissociation. The term Kd denotes a measure of binding affinity in units of concentration. Read a high Kd as a looser complex. A word on the kon: it is a measure of how fast the partners come together. For orientation: IC50 means the concentration that inhibits the measured activity by half. Higher therefore signals weaker potency.

T1 sequence (Q03405 23-305): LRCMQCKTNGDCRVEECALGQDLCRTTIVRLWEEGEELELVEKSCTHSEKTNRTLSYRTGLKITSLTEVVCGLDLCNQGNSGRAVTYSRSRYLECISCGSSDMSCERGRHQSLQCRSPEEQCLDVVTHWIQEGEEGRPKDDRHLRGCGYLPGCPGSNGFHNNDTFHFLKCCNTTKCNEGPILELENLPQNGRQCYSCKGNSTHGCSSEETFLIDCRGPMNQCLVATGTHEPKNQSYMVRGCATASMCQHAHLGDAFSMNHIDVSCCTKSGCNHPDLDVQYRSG
T2 sequence (Q03405 23-305): as above

Turning to `CC(C)C[C@@H]1NC(=O)[C@H](Cc2ccc(O)cc2)NC(=O)[C@H](NC(=O)[C@@H](CO)NC(=O)[C@H](Cc2ccccc2)NC(=O)[C@H](CC2CCCCC2)NC(=O)[C@H](CC(=O)O)NC(=O)CNC(=O)CNC(=O)[C@@H](CO)NC(=O)CNC(=O)[C@H](CCC(=O)O)NC(=O)[C@H](CCC(=O)O)NC(=O)CN2CCN(CC(=O)O)CCN(CC(=O)O)CCN(CC(=O)O)CC2)CSSC[C@@H](C(=O)O)NC(=O)[C@H](Cc2c[nH]c3ccccc23)NC1=O` [6b] ({DOTA}-EEG[dS]GGD[Cha]F[dS][dC]YLWC-OH; disulfide 11-15), in data set [1], the koff came to 0.00977 ± 1e-05 s⁻¹, the Kd was 20.3 nM and the kon was determined as 481000 ± 1000 M⁻¹ s⁻¹. Besides, in data set [2], the “Tm (apparent melting temperature of uPAR•peptide complex)” value amounted to 61.3 ± 0.4 °C and the “increase in apparent Tm” value is 6–14 °C. The compound further showed a half-maximal inhibitory concentration (IC50) in data set [3] of 15.8 ± 0.4 nM.

Regarding `CC(C)C[C@H](NC(=O)[C@H](Cc1ccc(O)cc1)NC(=O)[C@@H](CCCNC(=N)N)NC(=O)[C@@H](CO)NC(=O)[C@H](Cc1ccccc1)NC(=O)[C@H](CC1CCCCC1)NC(=O)[C@H](CC(=O)O)NC(=O)CNC(=O)CNC(=O)[C@@H](CO)NC(=O)CNC(=O)[C@H](CCC(=O)O)NC(=O)[C@H](CCC(=O)O)NC(=O)CN1CCN(CC(=O)O)CCN(CC(=O)O)CCN(CC(=O)O)CC1)C(=O)N[C@@H](Cc1c[nH]c2ccccc12)C(=O)N[C@@H](CO)C(N)=O` [10b] ({DOTA}-EEG[dS]GGD[Cha]F[dS][dR]YLWS-NH2), in data set [1], the dissociation rate constant (koff) came to 0.001367 ± 1e-06 s⁻¹; the affinity, expressed as Kd, was 3.18 nM; the kon was 429700 ± 400 M⁻¹ s⁻¹. Moreover, in data set [2], the “Tm (apparent melting temperature of uPAR•peptide complex)” value was determined as 66.2 ± 0.3 °C and the “increase in apparent Tm” value is 6–14 °C. The same compound had an IC50 in data set [3] of 4.8 ± 0.2 nM.

As to `CC(C)C[C@H](NC(=O)[C@H](Cc1ccc(O)cc1)NC(=O)[C@@H](CCCNC(=N)N)NC(=O)[C@@H](CO)NC(=O)[C@H](Cc1ccccc1)NC(=O)[C@H](CC1CCCCC1)NC(=O)[C@H](CC(=O)O)NC(=O)CNC(=O)CNC(=O)[C@@H](CO)NC(=O)CNC(=O)[C@H](CCC(=O)O)NC(=O)[C@@H](N)CCC(=O)O)C(=O)N[C@@H](Cc1c[nH]c2ccccc12)C(=O)N[C@@H](CO)C(=O)O` [compound 4] (H-EEG[dS]GGD[Cha]F[dS][dR]YLWS-OH; N-terminus assumed), in data set [1], the koff amounted to 0.00558 ± 1e-05 s⁻¹ and the association rate constant (kon) is 280000 ± 1000 M⁻¹ s⁻¹. For the same compound, in data set [2], the “Tm (apparent melting temperature of uPAR•peptide complex)” value was 55.2 °C and 55.2 ± 0.2 °C; the “decrease in apparent Tm on introduction of spacer” value was 10 °C. Also, in data set [3] (compared to AE105 (1)), the “fold increase in the IC50-value” is recorded as 2.7 fold.

Turning to `CC(C)C[C@@H]1NC(=O)[C@H](Cc2ccc(O)cc2)NC(=O)[C@H](NC(=O)[C@@H](CO)NC(=O)[C@H](Cc2ccccc2)NC(=O)[C@H](CC2CCCCC2)NC(=O)[C@H](CC(=O)O)NC(=O)CNC(=O)CNC(=O)[C@@H](CO)NC(=O)CNC(=O)[C@H](CCC(=O)O)NC(=O)[C@@H](N)CCC(=O)O)CSSC[C@@H](C(=O)O)NC(=O)[C@H](Cc2c[nH]c3ccccc23)NC1=O` [compound 6] (H-EEG[dS]GGD[Cha]F[dS][dC]YLWC-OH; disulfide 11-15; N-terminus assumed), in data set [1], the “association rate constant (kon) compared to (4)” value was “improved ~ twofold”, the “dissociation rate constant (koff) compared to (4)” value is given as “~ twofold impairment”, the koff was determined as 0.01033 ± 3e-05 s⁻¹ and the kon was found to be 611000 ± 3000 M⁻¹ s⁻¹. For the same compound, in data set [2], the “Tm (apparent melting temperature of uPAR•peptide complex)” value is 60.6 °C and 60.6 ± 0.7 °C; the “decrease in apparent Tm on introduction of spacer” value came to 10 °C. For the same compound, the “increase in thermal stability (apparent Tm)” value in data set [2] (disulfide-bonded peptide compared to linear peptide (4)) is 5 °C. Besides, the increase in potency in data set [3] (compared to (4)) came out at 1.4 fold. Moreover, the increase in potency in data set [3] (compared to (5)) is on record as 11 fold.
